“Also recorded” adds a separate entry of the source.
How the values were obtained:
[1] = system: misfolded proteins (Hb-AGE, Aβ); experiment: Binding of misfolded proteins from solution to immobilized small compounds (overall); settings: compounds coated on ELISA plates, Hb-AGE or Aβ in solution
Method: (§1) To test the ability of the twelve selected compounds (see Table 7) to bind to misfolded proteins, the compounds were immobilized at 10/100/1000 μg/ml in the wells of 96-wells Greiner Microlon high binding plates, Nunc amino Immobilizer plates and Nunc Maxisorp plates. Compounds were coated in 100 mM NaHCO3 pH 9.6, 50 μl/well, 1 h at room temperature with agitation. As a control, wells were coated with buffer only. After blocking of the plates, wells were overlayed with solutions of 0.1/1/10 μg/ml Hb-AGE or 10/100 μg/ml Aβ, in binding buffer (PBS/0.1% Tween20). After washing, binding of Hb-AGE was assessed by overlaying wells with 1 μg/ml hybridoma antibody 4B5, which binds to glycations(^2), followed by RAMPO. Binding of Aβ was visualized using 500× diluted anti-Aβ antibodies (mouse antibody beta-amyloid Clone 6F/3D #M0872, lot 00003503, DAKOCytomation; β-amyloid (H-43) SC-9129, 200 μg/ml rabbit polyclonal IgG, Santa Cruz Biotechnology) and RAMPO/SWARPO in a 1:1 ratio. Finally, wells were overlayed with OPD/H2O2 solution, and H2SO4, before absorbance readings at 490 nm.

heat-denatured ovalbumin = target: T1, heat-denatured ovalbumin (Gallus gallus, UniProt P01012); experiment: Thioflavin T fluorescence of ovalbumin and small compounds; parameters: species or system chicken; settings: 1 mg/ml compound, 1 mg/ml OVA
T1 construct: purchased Sigma A5503
T1 sequence (P01012 1-386): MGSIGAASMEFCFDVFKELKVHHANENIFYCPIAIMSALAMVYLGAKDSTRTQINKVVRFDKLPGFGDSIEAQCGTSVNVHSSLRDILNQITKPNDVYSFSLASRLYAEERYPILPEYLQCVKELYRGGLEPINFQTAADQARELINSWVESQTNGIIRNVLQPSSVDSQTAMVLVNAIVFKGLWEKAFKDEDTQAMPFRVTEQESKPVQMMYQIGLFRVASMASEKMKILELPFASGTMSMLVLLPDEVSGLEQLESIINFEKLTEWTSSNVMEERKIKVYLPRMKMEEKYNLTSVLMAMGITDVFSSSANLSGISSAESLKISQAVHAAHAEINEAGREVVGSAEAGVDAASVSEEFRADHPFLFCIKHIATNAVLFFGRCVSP
Method: To establish the enhancement of Thioflavin T fluorescence by ovalbumin preparations, 90 μl of 25 μM ThT-solution in 50 mM Glycine buffer (pH 9.0) was added to 10 μl sample in duplicate wells of black 96-wells plates. Heat-denatured ovalbumin at 1 mg/ml in PBS with no addition, DMSO at a final concentration of 1% v/v, or 1 mg/ml of the compounds listed in Table 7, was used. Compound stocks are 100 mg/ml in DMSO. In addition, ovalbumin at 1 mg/ml with the same additions was first heat denatured and subsequently used in the fluorescence assay. Heat denaturation was according to the protocol given above. Fluorescence of duplicates was measured on a Thermo Fluoroskan Ascent 2.5, at 435 nm excitation and 485 nm emission wavelengths.

ovalbumin = target: T2, ovalbumin (Gallus gallus, UniProt P01012); experiment: Transmission electron microscopy of ovalbumin heated in the presence of small compounds; parameters: species or system chicken; settings: 1 mg/ml ovalbumin heated with 1 mg/ml compound
T2 construct: purchased Sigma A5503
T2 sequence (P01012 1-386): T1 sequence (P01012 1-386)
Method: For TEM analyses grids were prepared according to standard procedures. Ovalbumin samples at 1 mg/ml were applied to 100-mesh copper grids with carbon coated Formvar (Merck, Germany), and subsequently washed with PBS and H2O. Grids were applied to droplets of 2% (m/v) methylcellulose with 0.4% (m/v) uranylacetate pH 4. After a 2-minutes incubation grids were dried on a filter. Images were recorded at 80 kV, at suitable magnifications on a JEM-1200EX electron microscope (JEOL, Japan).

Hb-AGE [2] = target: T3, Hb-AGE (Homo sapiens, UniProt P68871+P69905); experiment: Binding of Hb-AGE from solution to immobilized small compounds; settings: coat 100 μg/ml
T3 construct: purchased Sigma-Aldrich H7379
T3 sequence (P69905 2-142 limits assumed): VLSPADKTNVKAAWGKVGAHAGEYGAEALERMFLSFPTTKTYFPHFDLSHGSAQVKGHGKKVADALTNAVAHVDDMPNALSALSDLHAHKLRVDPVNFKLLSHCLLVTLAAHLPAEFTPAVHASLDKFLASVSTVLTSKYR
T3 sequence (P68871 2-147 limits assumed): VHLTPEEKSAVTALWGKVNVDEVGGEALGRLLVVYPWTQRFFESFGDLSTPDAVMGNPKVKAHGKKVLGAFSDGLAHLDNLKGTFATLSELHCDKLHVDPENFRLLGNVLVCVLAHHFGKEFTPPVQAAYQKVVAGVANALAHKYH
Method: as §1, with “the compounds were immobilized at 10/100/1000 μg/ml in the wells of 96-wells” left out

tPA/plasminogen [3] = target: T4, tPA/plasminogen (Homo sapiens, UniProt P00750); experiment: tPA/plasminogen activation by pre-formed misfolded OVA in the presence of compounds; assay type: biochemical; settings: 80-fold or 160-fold diluted compound and misfolded OVA stocks of 1 mg/ml
T4 construct: purchased Boehringer Ingelheim Actilyse
T4 sequence (P00750 36-562): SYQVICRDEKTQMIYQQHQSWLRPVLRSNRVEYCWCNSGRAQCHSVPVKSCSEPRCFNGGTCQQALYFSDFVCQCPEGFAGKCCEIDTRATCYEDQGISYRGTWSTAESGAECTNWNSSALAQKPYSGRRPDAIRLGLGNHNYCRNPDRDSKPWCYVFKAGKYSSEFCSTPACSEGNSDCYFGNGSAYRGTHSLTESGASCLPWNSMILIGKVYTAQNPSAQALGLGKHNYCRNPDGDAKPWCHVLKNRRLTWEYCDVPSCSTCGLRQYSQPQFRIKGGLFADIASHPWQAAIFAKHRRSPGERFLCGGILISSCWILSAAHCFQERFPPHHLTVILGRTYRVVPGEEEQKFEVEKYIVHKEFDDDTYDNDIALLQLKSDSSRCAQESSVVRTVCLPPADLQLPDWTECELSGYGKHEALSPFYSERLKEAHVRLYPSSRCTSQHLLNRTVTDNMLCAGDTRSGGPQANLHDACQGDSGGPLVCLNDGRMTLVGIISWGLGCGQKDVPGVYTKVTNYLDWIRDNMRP
Method: […] Negative control was buffer without OVA. […] In addition, it was assessed whether the compounds interfere with absorbance readings at 405 nm, with converted chromogenic substrate. […] The yellow solution is divided over wells of an ELISA plate. […] Signals are compared and related to the control.

tPA/plasminogen [4] = target: T4, tPA/plasminogen; experiment: tPA/plasminogen activation by OVA heated in the presence of compounds (substrate PNAPEP1751); assay type: biochemical; settings: 25 μg/ml OVA, 25 μg/ml compound, […] DMSO
Method: Heated OVA, either in PBS/1% DMSO (positive control), or in the same buffer in the presence of 1 mg/ml of the compounds, was used 40-fold diluted in the assay. Negative control was buffer without OVA. […] In addition, it was assessed whether the compounds interfere with absorbance readings at 405 nm, with converted chromogenic substrate. […] The yellow solution is divided over wells of an ELISA plate. […] Signals are compared and related to the control.

Hb-AGE [5] = target: T3, Hb-AGE; experiment: ELISA binding of tPA to immobilized Hb-AGE after pre-incubation with compounds; settings: Hb-AGE first overlayed with compound (concentration series), then tPA
Method: Compounds were now diluted 10× in PBS/0.1% Tween20 (500 μg/ml compound). […] With the selection, similar binding assays are performed with misfolded OVA and Aβ. Finally, concentration series of the selected compounds are used in the binding studies.

Aβ = target: T5, Aβ (Homo sapiens, UniProt P05067, E693Q); experiment: Binding of Aβ from solution to immobilized small compounds; settings: coat 100 μg/ml
T5 construct: Lyophilized human amyloid-β(1-40) with E22Q mutation ‘Dutch type’; purchased Peptide facility, Dutch Cancer Institute, Amsterdam; host or cells: synthetic peptide
Method: as §1, with “the compounds were immobilized at 10/100/1000 μg/ml in the wells of 96-wells” left out

tPA = tPA (Homo sapiens, UniProt P00750); experiment: tPA serine protease activity with OVA heated in the presence of compounds (substrate S-2765); assay type: biochemical; parameters: purchased Boehringer Ingelheim Actilyse; settings: OVA heated with 1 mg/ml compound, 80-, 160- or 320-fold diluted, 100 nM tPA
Chain of tPA (P00750 36-562): as above
Method: For this purpose, the influence of the compounds on heat-denaturation of OVA was analyzed (see above: Thioflavin T fluorescence measurements). Heated OVA at 1 mg/ml in PBS in the presence or absence of 1 mg/ml of the twelve compounds listed in Table 7 in PBS/DMSO (final DMSO concentration 1%) was used 80-fold or 160-fold or 320-fold diluted (final heated OVA concentration and compound concentration was 12.5 or 6.3 or 3.1 μg/ml; final DMSO concentration was 0.013% and 0.006% and 0.003%).

[6] = target: T6, glycated haemoglobin (Hb-AGE) (Homo sapiens, UniProt P68871+P69905); experiment: ELISA binding of IgIV to immobilized Hb-AGE and inhibition studies; settings: 15 μg/ml IgIV, concentration series of competitor
T6 construct: purchased Sigma-Aldrich H7379
T6 sequence (P69905 2-142 limits assumed): as the sequence (P69905 2-142 limits assumed) above
T6 sequence (P68871 2-147 limits assumed): as the sequence (P68871 2-147 limits assumed) above
Method: Binding of IgIV was determined using an enzyme linked immunosorbent assay (ELISA) set-up. For this purpose 50 μl/well of potential ligands at indicated concentrations or coat buffer only for control and background measurement purposes, were coated overnight at 4° C., with motion, in 50 mM NaHCO3 pH 9.6. Glycated albumin and Hb (BSA-AGE and Hb-AGE), control BSA and control Hb were coated at 5 μg/ml. The BSA and Hb controls were prepared freshly by dissolving lyophilized proteins at 1 mg/ml in PBS upon resuspending by pipetting, followed by a 30′ period at the roller bank, at room temperature. The protein solutions were centrifuged for 10′ at 16,000*g and diluted in coat buffer. Coat controls were performed with anti-glycated protein antibody, anti-albumin antibody, anti-Hb antibody. The alkaline phosphatase-conjugated anti-human Ig antibodies were controlled by coating the IgIV's and overlaying them the secondary antibodies. After coating the plates were washed twice with 50 mM Tris-HCl pH 7.3, 150 mM NaCl, 0.1% v/v Tween20, and blocked with 175 μl/well Blocking reagent (Roche Diagnostics, Almere, The Netherlands; catalogue number 11112589001), for 1 h at room temperature, with motion. Plates were washed twice and incubated in triplicate with indicated antibodies dilution series, plasma dilution series or controls, including binding buffer only, in the absence or presence of putative inhibitors, in binding buffer; PBS/0.1% v/v Tween20, at 50 μl/well, for 1 h at room temperature, with constant motion. After four wash cycles, secondary antibodies were added to the wells, 50 μl/well, for 45′ at room temperature, with motion. RAMPO and SWARPO were used at 2000 times dilution, goat anti-human IgG antibodies were diluted 3000 times, goat anti-human IgM antibodies were diluted 1000 times. After 5 washes with wash buffer followed by two washes with PBS, binding of antibodies was assessed. […] After 5′ absorbance was read at 405 nm. […] After 5′ absorbance was read at 490 nm. […] Triplicates were averaged and standard deviations calculated. […]

influence on binding of IgIV to immobilized Hb-AGE [6] | Molecule | capture of misfolded protein from solution by immobilized compound [1] | influence on Thioflavin T fluorescence with misfolded OVA (heat-denatured ovalbumin) | appearance of ovalbumin heated in the presence of compound on TEM image (ovalbumin) | Signal (a.u.) (Hb-AGE [2]; Nunc Maxisorp, Hb-AGE 10 μg/ml) | Signal (a.u.) (Hb-AGE [2]; Nunc amino Immobilizer, Hb-AGE 1 μg/ml) | influence on tPA/plasminogen activation by pre-formed misfolded OVA (tPA/plasminogen [3]) | influence on tPA/plasminogen activation by OVA pre-heated in the presence of compound (tPA/plasminogen [4]) | influence on tPA binding to immobilized Hb-AGE (Hb-AGE [5]) | Signal (a.u.) (Aβ; Nunc Maxisorp, Aβ 100 μg/ml) | Signal (a.u.) (Aβ; Nunc amino Immobilizer, Aβ 10 μg/ml) | Signal (a.u.) (Aβ; Nunc amino Immobilizer, Aβ 100 μg/ml) | influence on tPA protease activity of OVA heated in the presence of compound (tPA)
 | Cc1c(C(=O)O)c(O)cc2c1C(=O)c1c(O)c([C@H]3O[C@H](CO)[C@@H](O)[C@H](O)[C@H]3O)c(O)c(O)c1C2=O [compound 19] | Capture of misfolded protein from solution | Inhibition on Thioflavin T fluorescence with misfolded OVA | Background as in Control, but less aggregated. Also | 0.16 | 0.42 | Delayed tPA/plasminogen activation by misfolded OVA | Inhibition of tPA/plasminogen activation by OVA pre-heated | Stimulated tPA binding to immobilized misfolded protein (Hb- | 0.08 | 0.03 | 0.04 | 
 | Bucharaine [compound 8] |  |  | no large OVA aggregates are seen |  |  | potent inhibitors of misfolded OVA-triggered plasmin generation; also recorded: fully abolish plasmin activity |  |  |  |  |  | induces further stimulation of tPA by OVA; also recorded: induce increased tPA activity when combined with ovalbumin before heat-denaturation
enhance the binding of IgIV | Thioflavin S |  |  |  |  |  |  |  |  |  |  |  | 

Source: patent US20080267948A1, “Croos-B Structure Binding Compounds” (priority 2005, published 2008)
